Laboratory results published in patent publication US9808470B2, “Estrogenic components for use in the treatment of neurological disorders” (UNIVERSITE DE LIEGE, priority 2012, dated 2017).

What was measured:
[1] = Ex.8 therapeutic HIE rat model: brain weight and brain-body weight ratio; type: in vivo; conditions: 10 mg/kg/day E4, PND14, vs vehicle
Procedure: All the compounds used for in vivo studies were dissolved in absolute Ethanol (ETOH) and further diluted in saline solution at a final concentration of ETOH 10%. An equal volume (5 μ1/g) of the solution was injected intraperitoneally (ip) into the pups from study groups. Rat pups from the vehicle group were ip injected a saline solution containing 10% ETOH. Rat pups from the Sham group were not injected at all.
To study the therapeutic effect of estetrol, newborn rat pups were assigned to one of the following 14 groups at postnatal day 7 (FIG. 23(B)): Sham group (n=12), Vehicle (n=15), 5 mg/kg/day E4 (n=11), 10 mg/kg/day E4 (n=11), 5 mg/kg/day E4+1.6 mg/kg/day PROG (n=11), 10 mg/kg/day E4+1.6 mg/kg/day PROG (n=11), 5 mg/kg/day E4+16 mg/kg/day PROG (n=11), 10 mg/kg/day E4+16 mg/kg/day PROG (n=13), 5 mg/kg/day E4+136 ng//kg/day E2 (n=11), 10 mg/kg/day E4+136 ng/kg/day E2 (n=11), 5 mg/kg/day E4+1.6 mg/kg/day PROG+136 ng/kg/day E2 (n=12), 10 mg/kg/day E4+1.6 mg/kg/day PROG+136 ng/kg/day E2 (n=11), 5 mg/kg/day E4+16 mg/kg/day PROG+136 ng/kg/day E2 (n=11), 10 mg/kg/day E4+16 mg/kg/day PROG+136 ng/kg/day (n=12) groups. […] After surgery, the pups were returned to their dams and allowed to recover for 1 hour. The pups were then placed in a humidified hypoxic in vivo cabinet (CoyLab). […]

[2] = tested on: intact cells in hippocampus and cortex; test: Ex.4 therapeutic HIE rat model: intact cell counting; type: in vivo
Procedure: Paraformaldehyde-fixed paraffin embedded samples of the removed brains were coronally sectioned at the same level of the hippocampus region in accordance to the Paxinos rat brain atlas (Paxinos and Watson 2007. In: The rat brain in stereotaxic coordinates, 6th edition). Thickness of sections was 5 μm. Hematoxylin-eosin staining was performed. Briefly, sections were deparaffinized in xylene and rehydrated in graded ethanol concentrations before staining. Slides were stained with hematoxylin, rinsed for a few seconds in water, then placed in 1% eosin and washed, dehydrated, and coverslipped.
Intact cell counting was performed on hematoxylin-eosin-stained sections of the rat pups brains at magnification 400× in 3 fields of the respective brain area. Countings were performed in cortex and hippocampus (regions: dentate gyrus (DG), subgranular zone (SGZ), cornu ammonis (CA1, CA2/CA3)). The sections were analyzed with the aid of a microscope (Olympus BX51, Olympus, Tokyo, Japan), an image scanner (DotSlide Digital Virtual Microscopy, Olympus, Germany) and ImageJ software (NIH, US).
Intact cells are uninjured. Injured cells are characterized by a pale eosinophilic staining along with non-uniform nuclear densities-shrunken, condensed, or pale and enlarged.
To study the therapeutic effect of estetrol, newborn rat pups were assigned to one of the following 6 groups at postnatal day 7: sham group (n=29), vehicle group (n=20), 1 mg/kg E4 group (n=16), 5 mg/kg E4 group (n=19), 10 mg/kg day E4 (n=17) and 50 mg/kg day E4 group (n=15). At postnatal day 7 animals were anesthetized with isoflurane (induction, 3.0%; maintenance, 1.5%), and the rat pups from vehicle and E4 groups passed through surgery encompassing left common carotid artery double ligation and cut. After surgery, the pups were returned to their dams and allowed to recover for 1 hour. The pups were then placed in a humidified hypoxic in vivo cabinet (CoyLab). Hypoxia was produced by the inhalation of 11%-8% of oxygen balanced by nitrogen at decreased concentration of oxygen for 20 minutes, followed by inhalation of 8% oxygen and 92% nitrogen at constant concentration for 35 minutes. All the manipulations were performed at 37° C.
Upon retrieval from the hypoxia chamber the rat pups were injected intraperitoneally either by vehicle (vehicle group) or by E4 (1 mg/kg, 5 mg/kg, 10 mg/kg or 50 mg/kg) in accordance to the group assignment. The animals from the sham group went through similar procedures but proceeded neither left common carotid artery ligation and cut followed by hypoxia nor vehicle or estetrol administration. Rat pups recovered with their dams until being sacrificed at postnatal day 14.

## C[C@]12CC[C@@H]3c4ccc(O)cc4CC[C@H]3[C@@H]1[C@@H](O)[C@@H](O)[C@@H]2O [E4, 1,3,5(10)-estratrien-3,15α,16α,17β-tetrol]
[1]
  brain weight: significantly higher brain weight than the vehicle alone
[2]; 1 mg/kg E4 single ip dose after HI, CA1
  number of intact cells per visual field: 51.5±2.5
[2]; 1 mg/kg E4 single ip dose after HI, CA2/CA3
  number of intact cells per visual field: 33.9±4.306
[2]; 1 mg/kg E4 single ip dose after HI, cortex
  number of intact cells per visual field: 42.4±4.865
[2]; 5 mg/kg E4 single ip dose after HI, CA1
  number of intact cells per visual field: 45.3±2.989
[2]; 5 mg/kg E4 single ip dose after HI, CA2/CA3
  number of intact cells per visual field: 33.8±4.704
[2]; 5 mg/kg E4 single ip dose after HI, cortex
  number of intact cells per visual field: 57.1±7.012
[2]; 10 mg/kg E4 single ip dose after HI, CA1
  number of intact cells per visual field: 46.0±3.19
[2]; 10 mg/kg E4 single ip dose after HI, CA2/CA3
  number of intact cells per visual field: 35.2±3.169
[2]; 10 mg/kg E4 single ip dose after HI, cortex
  number of intact cells per visual field: 56.9±5.958
[2]; 50 mg/kg E4 single ip dose after HI, CA1
  number of intact cells per visual field: 46.6±5.336
[2]; 50 mg/kg E4 single ip dose after HI, CA2/CA3
  number of intact cells per visual field: 30.5±2.527
[2]; 50 mg/kg E4 single ip dose after HI, cortex
  number of intact cells per visual field: 54.5±3.403
